{"source": "paper PMC9450014", "about": "“The evaluation of ADME and pharmacokinetic properties of decoquinate derivatives for the treatment of malaria” (Frontiers in Pharmacology, 2022)", "type_in_all_cases": "in vitro ADME", "key": {"[1]": {"experiment": "Non-specific liver microsomal binding, MLM", "conditions": "mouse liver microsomes", "experimental": "(§1) Plasma protein binding was determined in pooled human plasma using an ultracentrifugation method. Stock solutions of test compounds were diluted in phosphate buffer and spiked into plasma in deep well 96-well plates. An aliquot of each compound was immediately precipitated with ice cold acetonitrile containing the internal standard carbamazepine (0.1 μM). These served as total concentration samples. After incubation in a water bath (37°C for 1 h), samples were transferred to ultracentrifuge tubes in duplicate and centrifuged for 4 h at 37°C and 30,000 g (Optima L-80XP, Beckman). Following centrifugation, the supernatant was transferred to the plate containing the total concentration samples and precipitated with ice cold acetonitrile containing the internal standard. Samples were analysed by LC-MS/MS (Shimadzu HPLC coupled with an AB Sciex 3200 Q TRAP MS). Non-specific binding in mouse liver microsomes (MLM) and human liver microsomes (HLM) were also determined with the ultracentrifugation method. Stock solutions of compounds (10 mM) were added in duplicate to microsome solution (0.5 mg/mL) in phosphate buffer (pH 7.4) to obtain a final drug concentration of 1 μM. The same method as for plasma protein binding was utilized. Analyte concentrations of all compounds were determined via LC-MS/MS (reverse phase Gemini NX-C18 column and Shimadzu HPLC coupled with an AB Sciex 3200 Q TRAP MS)."}, "[2]": {"experiment": "Plasma protein binding (ultracentrifugation)", "conditions": "pooled plasma; human plasma; read-out: Bound to plasma proteins (converted)", "experimental": "as §1"}, "[3]": {"experiment": "Non-specific liver microsomal binding, HLM", "conditions": "human liver microsomes", "experimental": "as §1"}}, "data": [{"smiles": "CCCCCCCCCCOc1cc2c(=O)c(C(=O)NCCOCCO)c[nH]c2cc1OCC", "note": "[RMB005]", "values": [{"measurement": "Bound to microsomes", "setting": "[1]", "value": 99, "unit": "%"}, {"measurement": "fraction unbound at 1 h", "setting": "[2]", "value": 0.08}, {"measurement": "Bound to microsomes", "setting": "[3]", "value": 99, "unit": "%"}]}]}
